Test results published in ChEMBL document CHEMBL1909046, “DrugMatrix in vitro pharmacology data”.

What was measured:
[1] = DRUGMATRIX: Sodium/nucleoside co-transporter radioligand binding (ligand: nitrobenzylthioinosine); type: cell membranes, Cavia porcellus, Dunkin-Hartley, Cerebral cortex, Membrane; settings: Not Active = under 50% inhibition at 10 µM
Glycine receptor = Glycine receptor (Rattus norvegicus, UniProt P22771+P24524+P07727+P20781); type: cell membranes, Wistar, Spinal cord, Membrane; also: in other assays of this panel Not Active means under 50% inhibition at 10 µM
[2] = biological target: Platelet-activating factor receptor (Homo sapiens, UniProt P25105); type: tissue-based; also: in other assays of this panel Not Active means under 50% inhibition at 10 µM
Chain of Platelet-activating factor receptor (P25105 whole entry): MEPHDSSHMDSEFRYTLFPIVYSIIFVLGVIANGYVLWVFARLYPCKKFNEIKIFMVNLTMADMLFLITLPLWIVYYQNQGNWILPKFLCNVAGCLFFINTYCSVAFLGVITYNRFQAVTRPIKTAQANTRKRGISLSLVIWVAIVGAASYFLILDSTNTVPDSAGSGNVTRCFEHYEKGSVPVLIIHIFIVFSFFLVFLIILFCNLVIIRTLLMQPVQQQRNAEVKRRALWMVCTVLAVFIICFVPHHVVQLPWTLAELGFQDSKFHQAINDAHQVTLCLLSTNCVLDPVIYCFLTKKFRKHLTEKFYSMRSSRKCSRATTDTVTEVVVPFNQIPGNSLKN

Caspase-1 = biological target: T1, Caspase-1 (Homo sapiens, UniProt P29466); design: species or system Escherichia coli;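 also: Caspase-1 enzyme inhibition assay with a peptide substrate; in other assays of this panel Not Active means under 50% inhibition at 10 µM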
T1 sequence (P29466 whole entry): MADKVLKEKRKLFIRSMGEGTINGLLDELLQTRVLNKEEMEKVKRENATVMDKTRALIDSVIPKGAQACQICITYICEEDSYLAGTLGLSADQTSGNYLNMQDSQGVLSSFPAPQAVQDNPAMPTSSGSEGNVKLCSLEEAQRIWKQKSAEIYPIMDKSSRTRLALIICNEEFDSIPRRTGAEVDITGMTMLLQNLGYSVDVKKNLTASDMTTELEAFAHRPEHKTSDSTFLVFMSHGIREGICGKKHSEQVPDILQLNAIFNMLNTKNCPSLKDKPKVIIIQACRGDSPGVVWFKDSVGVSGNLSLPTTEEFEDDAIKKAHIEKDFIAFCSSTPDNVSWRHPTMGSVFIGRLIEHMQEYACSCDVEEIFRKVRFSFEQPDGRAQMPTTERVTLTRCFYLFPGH

Cathepsin G = biological target: T2, Cathepsin G (Homo sapiens, UniProt P08311); type: tissue-based; settings: neutrophil;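 also: inhibition of Cathepsin G enzyme activity, tested on an AMC-conjugated peptide substrate; in other assays of this panel Not Active means under 50% inhibition at 10 µM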
T2 sequence (P08311 whole entry): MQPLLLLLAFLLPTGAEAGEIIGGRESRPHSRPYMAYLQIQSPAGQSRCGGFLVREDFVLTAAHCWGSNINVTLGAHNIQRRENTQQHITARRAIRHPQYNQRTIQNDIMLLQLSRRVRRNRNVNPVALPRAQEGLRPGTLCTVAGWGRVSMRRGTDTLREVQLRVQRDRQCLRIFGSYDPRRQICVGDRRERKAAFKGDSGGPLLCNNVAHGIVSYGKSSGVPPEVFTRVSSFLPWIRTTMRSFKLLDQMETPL

[3] = biological target: Protein kinase C alpha type (Homo sapiens, UniProt P17252); type: cell-based; settings: sf9
Glucocorticoid receptor = biological target: T3, Glucocorticoid receptor (Homo sapiens, UniProt P04150); settings: hela s3; also: in other assays of this panel Not Active means under 50% inhibition at 10 µM
T3 sequence (P04150 whole entry): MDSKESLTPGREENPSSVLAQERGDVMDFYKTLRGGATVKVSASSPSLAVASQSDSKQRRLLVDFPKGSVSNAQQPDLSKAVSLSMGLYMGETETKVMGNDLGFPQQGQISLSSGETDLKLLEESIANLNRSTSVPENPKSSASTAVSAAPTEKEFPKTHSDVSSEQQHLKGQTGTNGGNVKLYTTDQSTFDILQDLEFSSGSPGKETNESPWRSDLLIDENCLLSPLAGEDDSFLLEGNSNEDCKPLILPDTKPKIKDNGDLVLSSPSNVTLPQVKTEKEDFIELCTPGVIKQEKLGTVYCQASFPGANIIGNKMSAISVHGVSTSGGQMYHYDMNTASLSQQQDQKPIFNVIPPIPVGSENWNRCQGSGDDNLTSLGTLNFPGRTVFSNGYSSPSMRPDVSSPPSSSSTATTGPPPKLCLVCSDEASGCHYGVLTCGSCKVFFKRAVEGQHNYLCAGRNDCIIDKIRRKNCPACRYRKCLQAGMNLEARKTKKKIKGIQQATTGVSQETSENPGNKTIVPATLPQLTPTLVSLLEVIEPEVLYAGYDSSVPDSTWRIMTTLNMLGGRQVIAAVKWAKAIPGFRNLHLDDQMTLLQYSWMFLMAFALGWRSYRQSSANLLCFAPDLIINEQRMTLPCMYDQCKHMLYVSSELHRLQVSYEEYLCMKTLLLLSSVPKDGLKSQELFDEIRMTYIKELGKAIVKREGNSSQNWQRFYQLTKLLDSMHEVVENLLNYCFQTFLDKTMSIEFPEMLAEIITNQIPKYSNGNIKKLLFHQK

SMILES | IC50 [1] | Ki [1] | IC50 (Glycine receptor) | IC50 [2] | IC50 (Caspase-1) | IC50 (Cathepsin G) | IC50 [3] | IC50 (Glucocorticoid receptor) | IC50 ([1]; read-out: IC50) [µM] | Ki ([1]; read-out: Ki) [µM] | Ki (Glucocorticoid receptor) | IC50 (Caspase-1; read-out: IC50) [µM]
CC(C)(C)NC(=O)[C@@H]1C[C@@H]2CCCC[C@@H]2CN1C[C@@H](O)[C@H](Cc1ccccc1)NC(=O)[C@H](CC(N)=O)NC(=O)c1ccc2ccccc2n1 | Not Active | Not Active | Not Active | Not Active | Not Active | Not Active | Not Active | Not Active |  |  |  | 
CC(=O)[C@@]1(O)CC[C@H]2[C@@H]3C[C@H](C)C4=CC(=O)CC[C@]4(C)[C@H]3CC[C@@]21C | Not Active | Not Active | Not Active | Not Active | Not Active | Not Active | Not Active |  |  |  |  | 
N[C@@H](Cc1ccc(N(CCCl)CCCl)cc1)C(=O)O | Not Active | Not Active | Not Active | Not Active | Not Active | Not Active | Not Active | Not Active |  |  |  | 
CCCCc1oc2ccccc2c1C(=O)c1cc(I)c(OCCN(CC)CC)c(I)c1 [AMIODARONE] |  |  | Not Active | Not Active | Not Active | Not Active | Not Active | Not Active |  |  |  | 
OCCN(CCO)c1nc(N2CCCCC2)c2nc(N(CCO)CCO)nc(N3CCCCC3)c2n1 [DIPYRIDAMOLE] |  |  | Not Active | Not Active | Not Active | Not Active | Not Active |  | 0.083 | 0.029 |  | 
Cc1oncc1C(=O)Nc1ccc(C(F)(F)F)cc1 [LEFLUNOMIDE] |  |  | Not Active | Not Active | Not Active | Not Active | Not Active | Not Active | 15.1 | 5.16 |  | 
c1ccc([C@H]2CN3CCSC3=N2)cc1 [LEVAMISOLE] | Not Active | Not Active | Not Active | Not Active | Not Active | Not Active | Not Active |  |  |  | Not Active | 
N[C@@H](Cc1ccc(O)c(O)c1)C(=O)O [LEVODOPA] | Not Active | Not Active | Not Active | Not Active | Not Active | Not Active | Not Active | Not Active |  |  |  | 
N[C@@H](Cc1cc(I)c(Oc2ccc(O)c(I)c2)c(I)c1)C(=O)O [LIOTHYRONINE] |  |  | Not Active | Not Active | Not Active | Not Active | Not Active | Not Active |  |  |  | 
O=NN(CCCl)C(=O)NC1CCCCC1 [LOMUSTINE] | Not Active | Not Active | Not Active | Not Active | Not Active | Not Active | Not Active |  |  |  |  | 
CCOC(=O)N1CCC(=C2c3ccc(Cl)cc3CCc3cccnc32)CC1 [LORATADINE] | Not Active | Not Active | Not Active | Not Active | Not Active | Not Active | Not Active | Not Active |  |  |  | 
Cn1ccnc1S [METHIMAZOLE] | Not Active | Not Active | Not Active | Not Active | Not Active | Not Active | Not Active |  |  |  |  | 
CC[C@@H](CO)NC(=O)[C@@H]1C=C2c3cccc4[nH]cc(c34)C[C@H]2N(C)C1 [METHYLERGONOVINE] | Not Active | Not Active | Not Active | Not Active | Not Active | Not Active | Not Active | Not Active |  |  |  | 
COc1nc(C)nc(Cl)c1NC1=NCCN1 [MOXONIDINE] | Not Active | Not Active | Not Active | Not Active | Not Active | Not Active | Not Active | Not Active |  |  |  | 
COc1c(C)c2c(c(O)c1C/C=C(\C)CCC(=O)O)C(=O)OC2 [MYCOPHENOLIC ACID] | Not Active | Not Active | Not Active | Not Active | Not Active | Not Active | Not Active |  |  |  |  | 
CN1CCN(CCCN2c3ccccc3Sc3ccc(Cl)cc32)CC1 [PROCHLORPERAZINE] |  |  | Not Active | Not Active | Not Active | Not Active | Not Active | Not Active |  |  |  | 
CO[C@H]1/C=C/O[C@@]2(C)Oc3c(C)c(O)c4c(O)c(c(/C=N/N5CCN(C)CC5)c(O)c4c3C2=O)NC(=O)/C(C)=C\C=C\[C@H](C)[C@H](O)[C@@H](C)[C@@H](O)[C@@H](C)[C@H](OC(C)=O)[C@@H]1C [RIFAMPIN] | Not Active | Not Active | Not Active | Not Active |  | Not Active | Not Active |  |  |  |  | 8.32
Cc1nc2n(c(=O)c1CCN1CCC(c3noc4cc(F)ccc34)CC1)CCCC2 [RISPERIDONE] |  |  | Not Active | Not Active | Not Active | Not Active | Not Active | Not Active |  |  |  | 
Cc1noc(NS(=O)(=O)c2ccc(N)cc2)c1C [SULFISOXAZOLE] | Not Active | Not Active | Not Active | Not Active | Not Active | Not Active | Not Active |  |  |  |  | 
CSc1ccc(/C=C2/C(C)=C(CC(=O)O)c3cc(F)ccc32)cc1 [SULINDAC SULFIDE] | Not Active | Not Active | Not Active | Not Active | Not Active | Not Active | Not Active |  |  |  |  | 
Nc1c2c(nc3ccccc13)CCCC2 [TACRINE] | Not Active | Not Active | Not Active | Not Active | Not Active | Not Active | Not Active |  |  |  |  | 
CC/C(=C(\c1ccccc1)c1ccc(OCCN(C)C)cc1)c1ccccc1 [TAMOXIFEN] |  |  | Not Active | Not Active | Not Active | Not Active | Not Active | Not Active |  |  |  | 
CC(C)N1CCN(c2ccc(OCC3COC(Cn4cncn4)(c4ccc(Cl)cc4Cl)O3)cc2)CC1 (centres undefined) [TERCONAZOLE] |  |  | Not Active | Not Active | Not Active | Not Active | Not Active |  | 12.4 | 4.24 |  | 
NC[C@H]1CC[C@H](C(=O)O)CC1 [TRANEXAMIC ACID] | Not Active | Not Active | Not Active | Not Active | Not Active | Not Active | Not Active |  |  |  |  | 
CC1(C)O[C@@H]2C[C@H]3[C@@H]4CCC5=CC(=O)C=C[C@]5(C)[C@@]4(F)[C@@H](O)C[C@]3(C)[C@]2(C(=O)CO)O1 [TRIAMCINOLONE ACETONIDE] | Not Active | Not Active | Not Active | Not Active | Not Active | Not Active | Not Active |  |  |  |  | 
NS(=O)(=O)c1cc2c(cc1Cl)NC(C(Cl)Cl)NS2(=O)=O (centres undefined) [TRICHLORMETHIAZIDE] | Not Active | Not Active | Not Active | Not Active | Not Active | Not Active | Not Active |  |  |  |  | 
Cc1c(C)c2c(c(C)c1O)CCC(C)(COc1ccc(CC3SC(=O)NC3=O)cc1)O2 (centres undefined) [TROGLITAZONE] | Not Active | Not Active | Not Active | Not Active | Not Active | Not Active | Not Active |  |  |  |  | 
N#CC(C#N)=Cc1ccc(O)c(O)c1 [TYRPHOSTIN 23] | Not Active | Not Active | Not Active | Not Active | Not Active | Not Active | Not Active |  |  |  |  | 
